Several values for one entry are separate records, joined by “and”; a condition that tells them apart may be missing. Equal entries are not always repeated.
Target: catD / beta-secretase (BACE)
Experiment: CatD/BACE selectivity (ratio of IC50 values)
Format: biochemical
Details: each value is an average of four experimental runs; multiple values = more than one experiment
Method: (§1) Selectivity was calculated as a ratio of inhibition (IC50) values in which the inhibition of beta-secretase was compared to the inhibition of other aspartyl proteases.
(§2) In the following examples, each value is an average of four experimental runs and multiple values for one compound indicate that more than one experiment was conducted.

Structure (SMILES) | IC50 catD/IC50 BACE
CCc1cccc(C2(NCC(O)C(Cc3cc(F)cc(F)c3)NC(C)=O)CCOCC2)c1 (stereo not shown) [Example 196A-1, N-{1-(3,5-Difluoro-benzyl)-3-[4-(3-ethyl-phenyl)-tetrahydro-pyran-4-ylamino]-2-hydroxy-propyl}-acetamide] | 3.0 and 2.3 and 2.7
CC(=O)NC(Cc1ccc(O)cc1)C(O)CNC1(c2cccc(C(C)C)c2)CCCCC1 (stereo not shown) [Example 196A-2, N-{2-Hydroxy-1-(4-hydroxy-benzyl)-3-[1-(3-isopropyl-phenyl)-cyclohexylamino]-propyl}-acetamide] | 3.6 and 4.1 and 3.9
CC(=O)NC(Cc1cccc(F)c1)C(O)CNC1(c2cccc(C(C)C)c2)CCCCC1 (stereo not shown) [Example 196A-4, N-{1-(3-Fluoro-benzyl)-2-hydroxy-3-[1-(3-isopropyl-phenyl)-cyclohexylamino]-propyl}-acetamide] | 1.1
CC(=O)NC(Cc1cc(F)cc(F)c1)C(O)CNC1(c2cccc(C(C)C)c2)CCC2(CC1)OCCO2 (stereo not shown) [Example 196A-6, N-{1-(3,5-Difluoro-benzyl)-2-hydroxy-3-[8-(3-isopropyl-phenyl)-1,4-dioxa-spiro[4.5]dec-8-ylamino]-propyl}-acetamide] | 11.4
CC(=O)NC(Cc1cc(F)cc(F)c1)C(O)CNC1(c2cccc(C(C)C)c2)CCS(=O)(=O)CC1 (stereo not shown) [Example 196A-9, N-{1-(3,5-Difluoro-benzyl)-2-hydroxy-3-[4-(3-isopropyl-phenyl)-1,1-dioxo-hexahydro-1l6-thiopyran-4-ylamino]-propyl}-acetamide] | 1.4
CC(=O)NC(Cc1cc(F)cc(F)c1)C(O)CNC1(c2cccc(C(C)C)c2)CCN(C(C)=O)CC1 (stereo not shown) [Example 196A-10, N-[3-[1-Acetyl-4-(3-isopropyl-phenyl)-piperidin-4-ylamino]-1-(3,5-difluoro-benzyl)-2-hydroxy-propyl]-acetamide] | 3.2
CC(=O)NC(Cc1cc(F)cc(F)c1)C(O)CNC1(c2cccc(C(C)C)c2)CCN(S(C)(=O)=O)CC1 (stereo not shown) [Example 196A-11, N-{1-(3,5-Difluoro-benzyl)-2-hydroxy-3-[4-(3-isopropyl-phenyl)-1-methanesulfonyl-piperidin-4-ylamino]-propyl}-acetamide] | 12.7
CC(=O)NC(Cc1cc(F)cc(F)c1)C(O)CNC1(c2cccc(C(C)C)c2)CCN(C(=O)C(F)(F)F)CC1 (stereo not shown) [Example 196A-12, N-{1-(3,5-Difluoro-benzyl)-2-hydroxy-3-[4-(3-isopropyl-phenyl)-1-(2,2,2-trifluoro-acetyl)-piperidin-4-ylamino]-propyl}-acetamide] | 1.1
CC(=O)NC(Cc1cc(F)cc(F)c1)C(O)CNC1(c2cccc(C(C)C)c2)CCN(C=O)CC1 (stereo not shown) [Example 196A-13, N-{1-(3,5-Difluoro-benzyl)-3-[1-formyl-4-(3-isopropyl-phenyl)-piperidin-4-ylamino]-2-hydroxy-propyl}-acetamide] | 33.5
CCS(=O)(=O)N1CCC(NCC(O)C(Cc2cc(F)cc(F)c2)NC(C)=O)(c2cccc(C(C)(C)C)c2)CC1 (stereo not shown) [Example 196A-15, N-[3-[4-(3-tert-Butyl-phenyl)-1-ethanesulfonyl-piperidin-4-ylamino]-1-(3,5-difluoro-benzyl)-2-hydroxy-propyl]-acetamide] | 13.1
CC(=O)NC(Cc1cc(F)cc(F)c1)C(O)CNC1(c2cccc(-c3ccsc3)c2)CCC(=O)CC1 (stereo not shown) [Example 196A-19, N-(1-(3,5-difluorophenyl)-3-hydroxy-4-(4-oxo-1-(3-(thiophen-3-yl)phenyl)cyclohexylamino)butan-2-yl)acetamide] | 4.4
CC(=O)NC(Cc1cc(F)cc(F)c1)C(O)CNC1(c2cccc(C(C)(C)C)c2)CCCN(C)C1 (stereo not shown) [Example 196A-40, N-(4-(3-(3-tert-butylphenyl)-1-methylpiperidin-3-ylamino)-1-(3,5-difluorophenyl)-3-hydroxybutan-2-yl)acetamide] | >2,0
CC(=O)NC(Cc1cc(F)cc(F)c1)C(O)CNC1(c2cccc(Br)c2)CCC2(CC1)OCCO2 (stereo not shown) [Example 196A-47, N-[3-[8-(3-Bromo-phenyl)-1,4-dioxa-spiro[4.5]dec-8-ylamino]-1-(3,5-difluoro-benzyl)-2-hydroxy-propyl]-acetamide] | 1.7
CC(=O)NC(Cc1cc(F)cc(F)c1)C(O)CNC1(c2cccc(C(C)(C)C)c2)CCC(C#N)CC1 (stereo not shown) [Example 196A-48, N-[3-[1-(3-tert-Butyl-phenyl)-4-cyano-cyclohexylamino]-1-(3,5-difluoro-benzyl)-2-hydroxy-propyl]-acetamide] | 1.7
CC(=O)NC(Cc1cc(F)cc(F)c1)C(O)CNC1(c2cccc(-c3ccsc3)c2)CCC(=O)CC1 (stereo not shown) [Example 196A-49, N-{1-(3,5-Difluoro-benzyl)-2-hydroxy-3-[4-oxo-1-(3-thiophen-3-yl-phenyl)-cyclohexylamino]-propyl}-acetamide] | 4.4

Target: catE / beta-secretase (BACE)
Experiment: CatE/BACE selectivity (ratio of IC50 values)
Format: biochemical
Details: each value is an average of four experimental runs; multiple values = more than one experiment
Method: as §1
Selectivity is reported as the ratio of IC50(catE):IC50(BACE).
as §2

Structure (SMILES) | IC50 catE/IC50 BACE
COC1CCC(NCC(O)C(Cc2cc(F)cc(F)c2)NC(C)=O)(c2cccc(C(C)(C)C)c2)CC1 (single isomer, unassigned) [196B-3 Diastereomer A, N-[3-[1-(3-tert-Butyl-phenyl)-4-methoxy-cyclohexylamino]-1-(3,5-difluoro-benzyl)-2-hydroxy-propyl]-acetamide] | 1.8 and 1.5
COC1CCC(NCC(O)C(Cc2cc(F)cc(F)c2)NC(C)=O)(c2cccc(C(C)(C)C)c2)CC1 (single isomer, unassigned) [196B-4 Diastereomer B, N-[3-[1-(3-tert-Butyl-phenyl)-4-methoxy-cyclohexylamino]-1-(3,5-difluoro-benzyl)-2-hydroxy-propyl]-acetamide] | 1.5
CONC1CCC(NCC(O)C(Cc2cc(F)cc(F)c2)NC(C)=O)(c2cccc(C(C)(C)C)c2)CC1 (single isomer, unassigned) [196B-11 Diastereomer A, N-(4-(1-(3-tert-butylphenyl)-4-(methoxyamino)cyclohexylamino)-1-(3,5-difluorophenyl)-3-hydroxybutan-2-yl)acetamide] | 7.4
CONC1CCC(NCC(O)C(Cc2cc(F)cc(F)c2)NC(C)=O)(c2cccc(C(C)(C)C)c2)CC1 (single isomer, unassigned) [196B-12 Diastereomer B, N-(4-(1-(3-tert-butylphenyl)-4-(methoxyamino)cyclohexylamino)-1-(3,5-difluorophenyl)-3-hydroxybutan-2-yl)acetamide] | 12.5
CSC1CCC(NCC(O)C(Cc2cc(F)cc(F)c2)NC(C)=O)(c2cccc(C(C)(C)C)c2)CC1 (single isomer, unassigned) [196B-14 Diastereomer A, N-[3-[1-(3-tert-Butyl-phenyl)-4-methylsulfanyl-cyclohexylamino]-1-(3,5-difluoro-benzyl)-2-hydroxy-propyl]-acetamide] | 5.5 and 3.4 and 2.9
CSC1CCC(NCC(O)C(Cc2cc(F)cc(F)c2)NC(C)=O)(c2cccc(C(C)(C)C)c2)CC1 (single isomer, unassigned) [196B-15 Diastereomer B, N-[3-[1-(3-tert-Butyl-phenyl)-4-methylsulfanyl-cyclohexylamino]-1-(3,5-difluoro-benzyl)-2-hydroxy-propyl]-acetamide] | 2.4 and > 2.5 and 2.3
CNC1CCC(NCC(O)C(Cc2cc(F)cc(F)c2)NC(C)=O)(c2cccc(C(C)(C)C)c2)CC1 (single isomer, unassigned) [196B-16 Diastereomer A, N-(4-(1-(3-tert-butylphenyl)-4-(methylamino)cyclohexylamino)-1-(3,5-difluorophenyl)-3-hydroxybutan-2-yl)acetamide] | >4.7
CNC1CCC(NCC(O)C(Cc2cc(F)cc(F)c2)NC(C)=O)(c2cccc(C(C)(C)C)c2)CC1 (single isomer, unassigned) [196B-17 Diastereomer B, N-(4-(1-(3-tert-butylphenyl)-4-(methylamino)cyclohexylamino)-1-(3,5-difluorophenyl)-3-hydroxybutan-2-yl)acetamide] | 1.8
CC(=O)NC(Cc1cc(F)cc(F)c1)C(O)CNC1(c2cccc(C(C)(C)C)c2)CCC(N)CC1 (single isomer, unassigned) [196B-18 Diastereomer A, N-(4-(1-(3-tert-butylphenyl)-4-aminocyclohexylamino)-1-(3,5-difluorophenyl)-3-hydroxybutan-2-yl)acetamide] | >8.4
CC(=O)NC(Cc1cc(F)cc(F)c1)C(O)CNC1(c2cccc(C(C)(C)C)c2)CCC(N)CC1 (single isomer, unassigned) [196B-19 Diastereomer B, N-(4-(1-(3-tert-butylphenyl)-4-aminocyclohexylamino)-1-(3,5-difluorophenyl)-3-hydroxybutan-2-yl)acetamide] | >8.4
CC(=O)NC(Cc1cc(F)cc(F)c1)C(O)CNC1(c2cccc(C(C)(C)C)c2)CCC(C(F)(F)F)CC1 (single isomer, unassigned) [196B-21 Diastereomer A, N-(4-(1-(3-tert-butylphenyl)-4-(trifluoromethyl)cyclohexylamino)-1-(3,5-difluorophenyl)-3-hydroxybutan-2-yl)acetamide] | 6.4
CC(=O)NC(Cc1cc(F)cc(F)c1)C(O)CNC1(c2cccc(C(C)(C)C)c2)CCC(C(F)(F)F)CC1 (single isomer, unassigned) [196B-22 Diastereomer B, N-(4-(1-(3-tert-butylphenyl)-4-(trifluoromethyl)cyclohexylamino)-1-(3,5-difluorophenyl)-3-hydroxybutan-2-yl)acetamide] | 2.5
CC(=O)NC1CCC(NCC(O)C(Cc2cc(F)cc(F)c2)NC(C)=O)(c2cccc(C(C)(C)C)c2)CC1 (single isomer, unassigned) [196B-23 Diastereomer A, N-[3-[4-Acetylamino-1-(3-tert-butyl-phenyl)-cyclohexylamino]-1-(3,5-difluoro-benzyl)-2-hydroxy-propyl]-acetamide] | 29.5
